Consider 31 compounds from patent EP1135374B9, “BENZIMIDAZOLE COMPOUNDS THAT ARE VITRONECTIN RECEPTOR ANTAGONISTS” (SCHERING CORPORATION, priority 1998, dated 2000).

Assay [1] addresses purified αllbβ3 receptor (Homo sapiens, UniProt P05106+P08514). Briefly: similar competitive binding assay with 125I-echistatin on αllbβ3 receptor, used for the specificity index. Particulars: specificity index IC50 αllbβ3/ IC50 αvβ3. As to the method: To measure the relative affinity of the test compounds for αvβ3 receptors versus affinity for αllbβ3 receptors, similar competitive assays were carried out using purified αllbβ3 receptor and ^125I-echistatin (iodinated using the lactoperoxidase method). The specificity index, which is a measure of the relative binding affinity for αvβ3, versus αllbβ3, may be determined by dividing the IC50 value for αllbβ3 by the IC50 value for αvβ3.

Assay [2] deals with T1, αvβ3 receptor (purified from human placenta) (Homo sapiens, UniProt P05106+P06756).
T1 construct: αvβ3 receptor (purified from human placenta); from tissue; host or cells: human placenta
The assay is described as follows: competition radioligand binding assay, 125I-echistatin to αvβ3 receptor. The following applies: αvβ3, inhibition of specific 125I-echistatin binding. As to the method:
The following assay procedure, which is a competition radioligand binding assay, was carried out to determine the activity of the foregoing compounds as αvβ3 antagonists. The competitive assay procedure described in Kumar, et. al., "Biochemical Characterization Of The Binding Of Echistatin To Integrin αvβ3 Receptor", Journal Of Pharmacology And Experimental Therapeutics, Vol. 283, No. 2, pp. 843-853 (1997) was employed. Thus, binding of ^125I-echistatin (radiolabeled by the chloramine-T method to a specific activity of 2000 Ci/mmol (Amersham, Chicago, Il.)) to αvβ3 receptor (purified from human placenta), both prepared as described in Kumar, et al., was competed by the compounds prepared in the foregoing examples. Purified αvβ3 receptor was coated onto Microlite-2 plates at a concentration of 50 ng/well. ^125I-echistatin was added to the wells to a final concentration of 0.05 nM in binding buffer (50 µl/well) in the presence of the competing test compound. The competing test compounds were employed at serially diluted concentrations ranging from 1 pM to 100 nM. After a 3 hour incubation at room temperature, the wells were washed, and radioactivity, reflecting binding by ^125 I-echistatin to αvβ3 receptors, was determined with Top Count (Packard). Each data point is an average of values from triplicate wells.
Specific binding of ^125I-echistatin was calculated as the difference between the amount of ^125I-echistatin bound in the absence (total binding) and the amount of ^125I-echistatin bound in the presence of a 200-fold molar excess of unlabeled echistatin (nonspecific binding). The efficacy of the test compounds for inhibiting specific binding of ^125I-echistatin to αvβ3 receptors was determined by plotting a graph of specific binding (y-axis) as a function of test compound concentration (x-axis). The concentration of test compound required to inhibit 50% of the specific binding (IC50) was determined from the plot. The IC50 may be directly converted mathematically to Ki, which is a measure of the receptor binding affinity of the compounds under the defined assay conditions.

As for `COCC(=O)N(Cc1ccc(C(=O)NC[C@H](NC(=O)OCc2ccccc2)C(=O)O)cc1)C(C)c1nc2ccccc2[nH]1` (some centres unmarked) [Example 5-77], the “SPECIFICITY αIIbβ3 / αvβ3” value in assay [1] (Table 15) is given as 12.4. Further, the half-maximal inhibitory concentration (IC50) (usually the concentration at which inhibition is half-maximal) in assay [2] (Table 15) amounted to 49 nM.

As to `CCCCOC(=O)N[C@@H](CNC(=O)c1ccc(CN(Cc2nc3ccccc3[nH]2)C(=O)NC2CCCCC2)cc1)C(=O)O` [Example 5-82], the “Specificity αllbβ3 / αvβ3” value in assay [1] (Table 16) is on record as 1259. In assay [2] (Table 16), this compound yielded a concentration for half-maximal inhibition (IC50) of 2.2 nM.

`COCCNC(=S)N(Cc1ccc(C(=O)NC[C@H](NC(=O)OCc2ccccc2)C(=O)O)cc1)Cc1nc2ccccc2[nH]1` [Example 5-56]: in assay [1] (Table 10), the “SPECIFICITY αIIbβ3 / αvβ3” value is on record as 514. Also, the IC50 in assay [2] (Table 10) amounted to 1.6 nM.

In the case of `CCOC(=O)CNC(=O)N(Cc1ccc(C(=O)NC[C@H](NC(=O)OCc2ccccc2)C(=O)O)cc1)Cc1nc2ccccc2[nH]1` [Example 5-45, N^3-[4-[(benzimidazol-2-yl)methyl][[(ethoxycarbonylmethyl)amino]-carbonyl]aminomethylbenzoyl]-N^2-Cbz-1-2,3-diaminopropionic acid], the “SPECIFICITY αIIbβ3 / αvβ3” value in assay [1] (Table 10) worked out at 1333. In assay [2] (Table 10), the IC50 came to 2.2 nM.

On to `O=C(O)CC(NC(=O)c1ccc(CN(Cc2nc3ccccc3[nH]2)C(=O)CCc2ccccc2)cc1)c1ccccc1` (centres unmarked) [Example 5-68], for which the “Specificity α11bβ3 / αvβ3” value in assay [1] (Table 13) turned out to be 0.4. Further, in assay [2] (Table 13), the IC50 is 6630 nM.

On to `CCOC(=O)[C@H](CCSC)NC(=O)N(Cc1ccc(C(=O)NC[C@H](NC(=O)OCc2ccccc2)C(=O)O)cc1)Cc1nc2ccccc2[nH]1` [Example 5-48], for which the “SPECIFICITY αIIbβ3 / αvβ3” value in assay [1] (Table 10) stood at 2028. Further, the IC50 in assay [2] (Table 10) is 1 nM.

With `O=C(N[C@@H](CNC(=O)c1ccc(CN(Cc2nc3ccccc3[nH]2)C(=O)CCC2CCCC2)cc1)C(=O)O)OCc1ccccc1` [Example 5-14], the “SPECIFICITY αIIbβ3 / αvβ3” value in assay [1] (Table 10) was 117. This compound also registered an IC50 in assay [2] (Table 10) of 5.8 nM.

Take `COCCC(=O)N(Cc1ccc(C(=O)NC[C@H](NC(=O)OCc2ccccc2)C(=O)O)cc1)Cc1nc2ccccc2[nH]1` [Example 5-25]: the “SPECIFICITY αIIbβ3 / αvβ3” value in assay [1] (Table 10) was determined as 52. For the same compound, the IC50 in assay [2] (Table 10) worked out at 4.5 nM.

Take `O=C(N[C@@H](CNC(=O)c1ccc(CN(Cc2nc3ccccc3[nH]2)C(=O)CCc2ccccc2)cc1)C(=O)O)OCc1ccccc1` [Example 5-16]: in assay [1] (Table 10), the “SPECIFICITY αIIbβ3 / αvβ3” value is on record as 899. This compound also came in with an IC50 in assay [2] (Table 10) of 4.4 nM.

For the compound `CCCCOC(=O)N[C@@H](CNC(=O)c1ccc(CN(Cc2nc3ccccc3[nH]2)C(=O)NCC(=O)O)cc1)C(=O)O` [Example 5-97, N^3-[4-[(Benzimidazol-2-yl)methyl][[(carboxymethyl)amino]carbonyl]aminomethylbenzoyl]-N^2-(n-butoxycarbonyl)-L-2,3-diaminopropionic acid], in assay [1] (Table 16), the “Specificity αllbβ3 / αvβ3” value was found to be 2600. Besides, in assay [2] (Table 16), the IC50 was found to be 4.3 nM.

For the compound `CC(C)(C)OC(=O)N[C@@H](CNC(=O)c1ccc(CN(Cc2nc3ccccc3[nH]2)C(=O)CCC2CCCC2)cc1)C(=O)O` [Example 5-64], in assay [1] (Table 12), the “Specificity αllbβ3 / αvβ3” value came out at 499. In assay [2] (Table 12), this compound showed a half-maximal inhibitory concentration (IC50) of 16 nM.

Take `CC(NCc1ccc(C(=O)NC[C@H](NC(=O)OCc2ccccc2)C(=O)O)cc1)c1nc2ccccc2[nH]1` (some centres unmarked) [Example 5-75]: the “SPECIFICITY αIIbβ3 / αvβ3” value in assay [1] (Table 15) turned out to be 10.2. In assay [2] (Table 15), this compound registered an IC50 of 306 nM.

As for `CCCNC(=O)N(Cc1ccc(C(=O)NC[C@H](NC(=O)OCc2ccccc2)C(=O)O)cc1)Cc1nc2ccccc2[nH]1` [Example 5-39], the “SPECIFICITY αIIbβ3 / αvβ3” value in assay [1] (Table 10) worked out at 223. The compound also had an IC50 in assay [2] (Table 10) of 3.1 nM.

On to `CCCCOC(=O)N[C@@H](CNC(=O)c1ccc(CN(Cc2nc3ccccc3[nH]2)C(=O)NCC(=O)OCC)cc1)C(=O)O` [Example 5-86, N^3-[4-[(benzimidazol-2-yl)methyl][[(ethoxycarbonylmethyl)amino]-carbonyl]aminomethylbenzoyl]-N^2-(n-butoxycarbonyl)-L-2,3-diaminopropionic acid], for which, in assay [1] (Table 16), the “Specificity αllbβ3 / αvβ3” value is 793. Besides, in assay [2] (Table 16), the IC50 came to 3.3 nM.

Take `CC(=O)N(Cc1ccc(C(=O)NC[C@H](NC(=O)OCc2ccccc2)C(=O)O)cc1)C(C)c1nc2ccccc2[nH]1` (some centres unmarked) [Example 5-76]: the “SPECIFICITY αIIbβ3 / αvβ3” value in assay [1] (Table 15) was 6.7. The same compound yielded an IC50 in assay [2] (Table 15) of 50 nM.

With `O=C(NC(CNC(=O)c1ccc(CN(CCc2nc3ccccc3[nH]2)C(=O)CCC2CCCC2)cc1)C(=O)O)OCc1ccccc1` (centres unmarked) [Example 5-74], the “Specificity αIIβ3 / αvβ3” value in assay [1] (Table 14) is listed as 0.6. The compound further showed an IC50 in assay [2] (Table 14) of 238 nM.

As for `CCOc1ccc(NC(=O)N(Cc2ccc(C(=O)NC[C@H](NC(=O)OCc3ccccc3)C(=O)O)cc2)Cc2nc3ccccc3[nH]2)cc1` [Example 5-32], the “SPECIFICITY αIIbβ3 / αvβ3” value in assay [1] (Table 10) worked out at 151. In assay [2] (Table 10), the IC50 is 6.5 nM.

In the case of `O=C(N[C@@H](CNC(=O)c1ccc(CN(Cc2nc3ccccc3[nH]2)C(=O)COc2ccccc2)cc1)C(=O)O)OCc1ccccc1` [Example 5-19], the “SPECIFICITY αIIbβ3 / αvβ3” value in assay [1] (Table 10) is recorded as 34. This compound came in with a half-maximal inhibitory concentration (IC50) in assay [2] (Table 10) of 8.9 nM.

Turning to `O=C(N[C@@H](CNC(=O)c1ccc(CN(Cc2nc3ccccc3[nH]2)C(=O)NS(=O)(=O)c2ccc(Cl)cc2)cc1)C(=O)O)OCc1ccccc1` [Example 5-44], in assay [1] (Table 10), the “SPECIFICITY αIIbβ3 / αvβ3” value is 66.3. Also, the IC50 in assay [2] (Table 10) is 19.6 nM.

`CC(C)(C)OC(=O)N[C@@H](CNC(=O)c1ccc(CNCc2nc3ccccc3[nH]2)cc1)C(=O)O` [Example 5-60]: the “Specificity αllbβ3 / αvβ3” value in assay [1] (Table 12) is 90. In assay [2] (Table 12), this compound registered an IC50 of 25 nM.

Regarding `CN(Cc1ccc(C(=O)NC[C@H](NC(=O)OCc2ccccc2)C(=O)O)cc1)Cc1nc2ccccc2[nH]1` [Example 5-33], the “SPECIFICITY αIIbβ3 / αvβ3” value in assay [1] (Table 10) came to 128. The IC50 in assay [2] (Table 10) is 17 nM.

On to `O=C(N[C@@H](CNC(=O)c1ccc(CN(Cc2nc3cc(Cl)ccc3[nH]2)C(=O)NC2CCCCC2)cc1)C(=O)O)OCc1ccccc1` [Example 5-94], for which the “Specificity αllbβ3 / αvβ3” value in assay [1] (Table 16) is 399. In assay [2] (Table 16), the IC50 is 3.8 nM.

Take `CCOCC(=O)N(Cc1ccc(C(=O)NC[C@H](NC(=O)OCc2ccccc2)C(=O)O)cc1)Cc1nc2ccccc2[nH]1` [Example 5-26]: in assay [1] (Table 10), the “SPECIFICITY αIIbβ3 / αvβ3” value was 91. Also, in assay [2] (Table 10), the IC50 came to 3.5 nM.

As to `CN(C)CC(=O)N(Cc1ccc(C(=O)NC[C@H](NC(=O)OCc2ccccc2)C(=O)O)cc1)Cc1nc2ccccc2[nH]1` [Example 5-24], the “SPECIFICITY αIIbβ3 / αvβ3” value in assay [1] (Table 10) turned out to be 14. The compound further had an IC50 in assay [2] (Table 10) of 5.3 nM.

With `CCCCOC(=O)N[C@@H](CNC(=O)c1ccc(CN(Cc2nc3ccccc3[nH]2)C(=O)Nc2ccc(C(=O)OCC)cc2)cc1)C(=O)O` [Example 5-91], the “Specificity αllbβ3 / αvβ3” value in assay [1] (Table 16) turned out to be 1183. This compound also had an IC50 in assay [2] (Table 16) of 2.8 nM.

As for `O=C(NC[C@H](NS(=O)(=O)c1ccccc1)C(=O)O)c1ccc(CN(Cc2nc3ccccc3[nH]2)C(=O)NC2CCCCC2)cc1` [Example 5-81], the “Specificity αllbβ3 / αvβ3” value in assay [1] (Table 16) came to 8.0. For the same compound, the IC50 in assay [2] (Table 16) is 8.2 nM.

`O=C(N[C@@H](CNC(=O)c1ccc(CN(Cc2nc3ccccc3[nH]2)C(=O)N2CCOCC2)cc1)C(=O)O)OCc1ccccc1` [Example 5-42]: the “SPECIFICITY αIIbβ3 / αvβ3” value in assay [1] (Table 10) was 39. The compound also yielded an IC50 in assay [2] (Table 10) of 1.8 nM.

In the case of `COCC(=O)N(Cc1ccc(C(=O)NC[C@@H](NC(=O)OCc2ccccc2)C(=O)O)cc1)Cc1nc2ccccc2[nH]1` [Example 5-58], in assay [1] (Table 11), the “Specificity αllbβ3 / αvβ3” value came to 46. Moreover, the IC50 in assay [2] (Table 11) was 118 nM.

For `O=C(N[C@@H](CNC(=O)c1ccc(CN(Cc2nc3ccccc3[nH]2)C(=S)NCCc2ccccc2)cc1)C(=O)O)OCc1ccccc1` [Example 5-31], the “SPECIFICITY αIIbβ3 / αvβ3” value in assay [1] (Table 10) is 80. The same compound displayed an IC50 in assay [2] (Table 10) of 6 nM.

With `CC(C)C(=O)N(Cc1ccc(C(=O)NC[C@H](NC(=O)OCc2ccccc2)C(=O)O)cc1)Cc1nc2ccccc2[nH]1` [Example 5-13], the “SPECIFICITY αIIbβ3 / αvβ3” value in assay [1] (Table 10) is recorded as 38. The IC50 in assay [2] (Table 10) came out at 3.1 nM.

Turning to `CCCCOC(=O)N[C@@H](CNC(=O)c1ccc(CN(Cc2nc3ccccc3[nH]2)C(=O)Nc2ccc(F)cc2)cc1)C(=O)O` [Example 5-88], in assay [1] (Table 16), the “Specificity αllbβ3 / αvβ3” value worked out at 1657. The same compound had an IC50 in assay [2] (Table 16) of 2 nM.
